Test: Solubility in water
Type: physicochemical
Excerpt: For the solid compounds, the solubility is defined as the percentage by weight of the compound in a solution at equilibrium with the solid phase at the above temperature T and a pressure of one atmosphere. For the liquid compounds (or solids in the pure state), the aqueous mixtures of which separate into two or more phases, the solubility taken into account is the percentage by weight of the specified compound in the water-rich liquid phase at equilibrium at the operating temperature (temperature at which said particles are manufactured (as the case may be, between 20 and 95° C.)) and a pressure of one atmosphere.

OC[C@@H](O)[C@H](O)[C@@H](O)CO [xylitol]
solubility in water (at 25° C.): 30 % by weight | solubility in water (temperature not stated): 39%

CCCCN(CCC(=O)OCC)C(C)=O [IR3535, ethyl 3-[acetyl(butyl)amino]propanoate, reference compound]
solubility in water (at 20° C.): approximately 7 % by weight
